What was measured:
[1] = target: Protein kinase C (PKC); test: Inhibition of protein kinase C; assay type: protein assay
[2] = test system: Vero; test: Compound was evaluated for its cytotoxicity against Vero cell line; assay type: functional, Chlorocebus sabaeus
[3] = test system: Human betaherpesvirus 5; test: Inhibitory activity against human cytomegalo virus (HCMV) using standard plaque reduction assay; assay type: functional, organism-based
[4] = target: Protein kinase C (PKC) (Homo sapiens) (UniProt O94806+P41743+P17252+P05129+Q05655+P05771+Q05513+Q02156+P24723+Q15139+Q04759); test: Percent inhibition of protein kinase C at 100 uM; assay type: protein assay
[5] = test system: MRC5; test: Inhibitory concentration against 2599R strain of HCMV in MRC5 cells; assay type: functional, cell-based; conditions: Homo sapiens
[6] = test system: MRC5; test: Inhibitory concentration against AD169 strain of HCMV in MRC5 cells; assay type: functional, cell-based; conditions: Homo sapiens
[7] = test system: MRC5; test: Inhibitory concentration against Davis strain of HCMV in MRC5 cells; assay type: functional, cell-based; conditions: Homo sapiens
[8] = test system: MRC5; test: Inhibitory concentration against Towne strain of HCMV in MRC5 cells; assay type: functional, cell-based; conditions: Homo sapiens
[9] = test system: MRC5; test: Inhibitory concentration against Xba F strain of HCMV in MRC5 cells; assay type: functional, cell-based; conditions: Homo sapiens
[10] = test system: MRC5; test: Inhibitory concentration against 2599R HCMV strain of MRC5 cells; assay type: functional, cell-based; conditions: Homo sapiens
[11] = test system: MRC5; test: Inhibitory concentration against AD169 HCMV strain of MRC5 cells; assay type: functional, cell-based; conditions: Homo sapiens
[12] = test system: MRC5; test: Inhibitory concentration against C8805 HCMV strain of MRC5 cells; assay type: functional, cell-based; conditions: Homo sapiens
[13] = test system: MRC5; test: Inhibitory concentration against Davis HCMV strain of MRC5 cells; assay type: functional, cell-based; conditions: Homo sapiens
[14] = test system: MRC5; test: Inhibitory concentration against Towne HCMV strain of MRC5 cells; assay type: functional, cell-based; conditions: Homo sapiens
[15] = test system: MRC5; test: Inhibitory concentration against Xba F HCMV strain of MRC5 cells; assay type: functional, cell-based; conditions: Homo sapiens

Row | Compound | IC50 [1] | CCID50 [2] | IC50 [3] | inhibition [4] | further results
1 | CC(C)n1c2ccccc2c2c3c(c4c5ccccc5[nH]c4c21)C(=O)NC3=O | 50000 nM | 28 µM | 100 nM | – | –
2 | O=C1NC(=O)c2c1c1c3ccccc3[nH]c1c1c2c2ccccc2n1CC(F)(F)F | 25000 nM | <8 µM | 70 nM | – | –
3 | O=C1NC(=O)c2c1c1c3ccccc3[nH]c1c1[nH]c3ccccc3c21 [STAUROSPORINE AGLYCON] | – | >125 µM | 200 nM | < 50% | –
4 | CC(C)Cn1c2ccccc2c2c3c(c4c5ccccc5[nH]c4c21)C(=O)NC3=O | – | <8 µM | 30 nM | 71% | –
5 | O=C1NC(=O)c2c1c1c3ccccc3[nH]c1c1c2c2ccccc2n1Cc1ccccc1 | – | <31 µM | – | 23% | –
6 | Cn1c2ccccc2c2c3c(c4c5ccccc5[nH]c4c21)C(=O)NC3=O | – | >31 µM | 60 nM | 47% | –
7 | Nc1nc2c(ncn2COC(CO)CO)c(=O)[nH]1 [GANCICLOVIR] | – | >500 µM | 3000 nM | – | IC50 [5]: 1600 nM; IC50 [6]: 3000 nM; IC50 [7]: 1400 nM; IC50 [8]: 1500 nM; IC50 [9]: > 10000 nM
8 | CCn1c2ccccc2c2c3c(c4c5ccccc5[nH]c4c21)C(=O)NC3=O | 10000 nM | >125 µM | 19 nM | – | IC50 [10]: 130 nM; IC50 [11]: 19 nM; IC50 [12]: 60 nM; IC50 [13]: 30 nM; IC50 [14]: 90 nM; IC50 [15]: 20 nM
9 | CCCn1c2ccccc2c2c3c(c4c5ccccc5[nH]c4c21)C(=O)NC3=O | 50000 nM | <8 µM | 150 nM | – | –

Source: ChEMBL document CHEMBL1133886, “Synthesis of N-alkyl substituted indolocarbazoles as potent inhibitors of human cytomegalovirus replication” (Bioorg Med Chem Lett, 2001)
